{"source": "patent US20240391889A1", "about": "“ANTIMICROBIAL COMPOUNDS AND THE METHODS OF USE” (priority 2021, published 2024)", "key": {"C. krusie": {"system": "C. krusie", "assay_type": "cell-based, Candida krusie"}, "[1]": {"system": "Acinetobacter baumanii ATCC 19606", "assay_type": "cell-based, Acinetobacter baumannii", "conditions": "ATCC 19606, 24 h", "source_text": "This screening led to the discovery of RMG9-11 (FIG. 2C). The minimum inhibitory concentration (MIC) of resynthesized RMG9-11 was initially determined against C. albicans, C. neoformans, and the ESKAPE bacteria via CSLI guidelines (CLSI. Methods for Dilution Antimicrobial Susceptibility Tests for Bacteria That Grow Aerobically, 11th Edition. Clinical and Laboratory Standards Institute (2018); CLSI. Reference method for broth dilution antifungal susceptibility testing of yeasts; approved standard-third edition; CLSI document M27-A3. Clinical and Laboratory Standards Institute (2008)). […]\nThe minimum inhibitory concentration (MIC) of peptoids against the ESKAPE bacteria (Enterococcus faecium ATCC 6569; Staphylococcus aureus ATCC 29213; Klebsiella pneumoniae ATCC 13883; Acinetobacter baumanii ATCC 19606; Pseudomonas aeruginosa ATCC 25619; Enterococcus faecalis ATCC 29212; and Escherichia coli ATCC 25922) was determined following CLSI guidelines (CLSI. Methods for Dilution Antimicrobial Susceptibility Tests for Bacteria That Grow Aerobically, 11th Edition. Clinical and Laboratory Standards Institute, 2018). The MIC against Mycobacterium smegmatis was also determined following CLSI guidelines (Woods, G. L. et al. Susceptibility Testing of Mycobacteria, Nocardiae, and Other Aerobic Actinomycetes, 2nd edition. (2011)). […]"}, "in vitro": {"test": "in vitro", "assay_type": "cell-based, human"}, "HepG2 liver cells": {"system": "HepG2 liver cells", "test": "in vitro", "assay_type": "cell-based"}, "[2]": {"system": "Enterococcus faecium ATCC 6569", "assay_type": "cell-based", "conditions": "ATCC 6569, 24 h", "source_text": "(§1) This screening led to the discovery of RMG9-11 (FIG. 2C). The minimum inhibitory concentration (MIC) of resynthesized RMG9-11 was initially determined against C. albicans, C. neoformans, and the ESKAPE bacteria via CSLI guidelines (CLSI. Methods for Dilution Antimicrobial Susceptibility Tests for Bacteria That Grow Aerobically, 11th Edition. Clinical and Laboratory Standards Institute (2018); CLSI. Reference method for broth dilution antifungal susceptibility testing of yeasts; approved standard-third edition; CLSI document M27-A3. Clinical and Laboratory Standards Institute (2008)). […] C. albicans clinical isolates include a reference strain (M1), fluconazole susceptible strains (M4 and M6), and fluconazole resistant strains (M2, M3, M5, and M7). ATCC 64124 is multidrug resistant C. albicans strain that is resistant to amphotericin B, fluconazole, caspofungin, and flucytosine. All MICs were performed under CSLI guidelines in triplicate on at least three different days.\n(§2) The minimum inhibitory concentration (MIC) of peptoids against the ESKAPE bacteria (Enterococcus faecium ATCC 6569; Staphylococcus aureus ATCC 29213; Klebsiella pneumoniae ATCC 13883; Acinetobacter baumanii ATCC 19606; Pseudomonas aeruginosa ATCC 25619; Enterococcus faecalis ATCC 29212; and Escherichia coli ATCC 25922) was determined following CLSI guidelines (CLSI. Methods for Dilution Antimicrobial Susceptibility Tests for Bacteria That Grow Aerobically, 11th Edition. Clinical and Laboratory Standards Institute, 2018). The MIC against Mycobacterium smegmatis was also determined following CLSI guidelines (Woods, G. L. et al. Susceptibility Testing of Mycobacteria, Nocardiae, and Other Aerobic Actinomycetes, 2nd edition. (2011)). Colonies picked from streaked tryptic soy agar plates were added to tryptic soy broth (TSB) to achieve a turbidity of OD600=0.08-0.15. Inoculant was diluted 1:200 into cation adjust Mueller Hinton Broth (CAMHB) and 90 μL was plated into each well of a 96 well black-wall plate. 2-fold serial dilutions of 10× peptoid (10 μL) were added to each well in triplicate and incubated at 37° C. for 24 hours for the ESKAPE bacteria and 72 hours for M. smegmatis. Tetracycline (20 μg/mL) was used as a positive control with DI water was used as a vehicle control. Following incubation for the ESKAPE bacteria, PRESTO BLUE (10 μL) was added to each well and incubated at 37° C. for one hour before measuring fluorescence on a SPECTRAMAX M5 plate reader (Ex. 555 nm; Em. 585 nm). Following incubation for M. smegmatis, wells were scored following CLSI guidelines to determine MIC. This assay was repeated three times on separate days."}, "[3]": {"system": "Enterococcus faecalis ATCC 29212", "assay_type": "cell-based", "conditions": "24 h, CAMHB", "source_text": "as §1, §2"}, "[4]": {"system": "Staphylococcus aureus ATCC 29213", "assay_type": "cell-based", "conditions": "24 h, CAMHB", "source_text": "as §1, §2"}, "[5]": {"system": "Pseudomonas aeruginosa ATCC 25619", "assay_type": "cell-based", "conditions": "ATCC 25619, 24 h", "source_text": "as §1, §2"}, "[6]": {"system": "Escherichia coli ATCC 25922", "assay_type": "cell-based", "conditions": "24 h, CAMHB", "source_text": "as §1, §2"}, "C. glabrata": {"system": "C. glabrata", "assay_type": "cell-based, Candida glabrata"}, "C. neoformans": {"system": "C. neoformans", "assay_type": "cell-based, Cryptococcus neoformans", "source_text": "as §1\nThe minimum inhibitory concentration (MIC) of peptoids against fungal pathogens C. albicans and C. neoformans was determined following CLSI guidelines (Reference method for broth dilution antifungal susceptibility testing of yeasts; approved standard-third edition; CLSI document M27-A3.” CLSI. 2008.). Colonies were transferred from a streaked YPD plate to 0.85% saline to reach an OD530 between 0.18 and 0.25. This inoculant was diluted 1:100 into RPMI-MOPS and then further diluted 1:20 into RPMI-MOPS. 198 μL of inoculant was seeded into each well of a 96 well black-walled plate. 2-fold serial dilutions of 100× peptoid solutions were prepared in water and 2 μL of peptoid were added to each well in triplicate. […] MIC was defined as the lowest concentration of compound preventing fungal growth. This assay was repeated 3 times on separate days with each compound."}}, "note": "Numbered stars: 1 amine (or outer) side, 2 acyl side, 3 side chain; on linkers, the order of the positions; unused ones are H or OH. Square brackets hold non-standard residues; d marks the D form. Peptide text beside a SMILES is read from it. N(tridecyl)Gly = CCCCCCCCCCCCCNCC(=O)O; X1 = CC(c1ccccc1)N(CC(=O)[*:2])[*:1]; NFurfurylGly = O=C(O)CNCc1ccco1; Gly(N(CH2)3NH2) = NCCCNCC(=O)O; Nphe = O=C(O)CNCc1ccccc1; NPrGly = CCCNCC(=O)O; Nlys = NCCCCNCC(=O)O"}
{"molecule": "CCCCCCCCCCCCCNCC(=O)N(CCC)CC(=O)N(CC(=O)N(CCCCN)CC(=O)N(CC(=O)N(CC(=O)N(CCCN)CC(N)=O)Cc1ccccc1)Cc1ccco1)C(C)c1ccccc1", "note": "(centres unmarked) [RMG9-11] (H-[N(tridecyl)Gly][NPrGly][X1][Nlys][NFurfurylGly][Nphe][Gly(N(CH2)3NH2)]-NH2)", "values": [{"measurement": "MIC C. krusie", "setting": "C. krusie", "result": 3.13, "unit": "µg/mL"}, {"measurement": "MIC A. baumannii", "setting": "[1]", "result": 12.5, "unit": "µg/mL"}, {"measurement": "CC50 at 72 h", "setting": "in vitro; human, HaCat human keratinocyte cells", "result": "53 ± 5", "unit": "µg/mL"}, {"measurement": "CC50 at 72 h", "setting": "in vitro; human, HepG2 hepatocellular carcinoma cells", "result": "114 ± 5", "unit": "µg/mL"}, {"measurement": "CC50 at 72 h", "setting": "in vitro; mouse, 3T3 mouse fibroblast cells", "result": "39 ± 2", "unit": "µg/mL"}, {"measurement": "toxicity at the MIC against C. albicans, HepG2", "setting": "HepG2 liver cells", "result": "no toxicity"}, {"measurement": "MIC E. faecium", "setting": "[2]", "result": 3.13, "unit": "µg/mL"}, {"measurement": "MIC E. faecalis", "setting": "[3]", "result": 6.25, "unit": "µg/mL"}, {"measurement": "MIC S. aureus", "setting": "[4]", "result": 6.25, "unit": "µg/mL"}, {"measurement": "MIC P. aeruginosa", "setting": "[5]", "result": 12.5, "unit": "µg/mL"}, {"measurement": "MIC E. coli", "setting": "[6]", "result": 6.25, "unit": "µg/mL"}, {"measurement": "MIC C. glabrata", "setting": "C. glabrata", "result": 6.25, "unit": "µg/mL"}, {"measurement": "improvement of MIC C. neoformans vs C. albicans", "setting": "C. neoformans", "result": 2, "unit": "fold"}, {"measurement": "MIC C. neoformans", "setting": "C. neoformans; 72 h", "result": 3.13, "unit": "µg/mL"}]}
